Results as given in PMC9283420, “Conformational changes in the catalytic region are responsible for heat-induced activation of hyperthermophilic homoserine dehydrogenase” (Communications Biology, 2022).

B1: homoserine dehydrogenase from the hyperthermophilic archaeon Sulfurisphaera tokodaii strain 7 (StHSD), immature enzyme (enzyme)
chain: MKLLLFGYGNVGKAFRKLLHEKRSPELNDVIIGGIVTRRGIMLQDKEDFTPDLEGDVFKAFEKIKPDIIVDVSSANYNNGEPSLSLYKEAIKDGVNIITTNKAPLALAFNEIFSLARSKGVKIGFQGTVMSGTPSINLYRVLPGSRVIKIRGILNGTTNFILTLMNKGVSFEEALKEAQRRGYAEEDPTLDINGFDAAAKITILANFMIGNSVTIKDVKFEGINRDLPKNEKIKLIAYADEKEVWVKPLPISQDDPLYNVDGVENALEITTDIQSILIRGPGAGPVNAAYGALSDLILLKRDCL
modifications: disulfide bond between the C303 residues of the two subunits
notes: homoserine dehydrogenase, Sulfurisphaera tokodaii strain 7; The same recombinant enzyme after heat treatment is called the mature enzyme (cited structures 4YDR, 5X9D); The IM/NADP/BU crystal form also holds NADP+ and 1,4-butanediol; also called immature StHSD; IM/NADP/BU; source: Blue Sepharose for the apo-form

What was measured:
[1] = molecular target: T1, immature StHSD (not heat-treated) (Sulfurisphaera tokodaii, UniProt F9VNG5); experiment: initial velocity of NADH production at […] nm; Morrison fit; format: biochemical; details: read-out: apparent Ki
T1 construct: gene hom; full length (residues 1-304 described), recombinant from plasmid pSTHSD in E. coli BL21 at 310 K, purified without heat treatment; homodimer with C303-C303 intersubunit disulfide (oxidized)
T1 sequence (F9VNG5 1-304): B1 chain

[2] = molecular target: T2, mature StHSD (heat-treated) (Sulfurisphaera tokodaii, UniProt F9VNG5); experiment: as above; format: biochemical; details: read-out: apparent Ki
T2 construct: gene hom; full length (residues 1-304 described), recombinant from plasmid pSTHSD in E. coli BL21, matured by heat treatment (343 K); homodimer
T2 sequence (F9VNG5 1-304): B1 chain

[3] = molecular target: the molecule itself; experiment: crystal structure; hanging-drop vapor diffusion at 295 K; immature enzyme as apo-form (IM) and with NADP+ and 1,4-butanediol (IM/NADP/BU); space group P2(1), two subunits in the asymmetric unit

Row | Molecule | Ki [1] [µM] | Ki [2] [µM] | stoichiometry N [3] [subunits]
1 | NC(=O)c1ccc[n+]([C@@H]2O[C@H](COP(=O)(O)OP(=O)(O)OC[C@H]3O[C@@H](n4cnc5c(N)ncnc54)[C@H](OP(=O)(O)O)[C@@H]3O)[C@@H](O)[C@H]2O)c1 [NADP^+] | 26 ± 1.7 | 48 ± 1.2 | –
2 | B1 | – | – | 2
